US20260199484A1, “PROTAC DEGRADERS OF MLLT1 AND/OR MLLT3” (DARK BLUE THERAPEUTICS LTD, priority 2024, published 2026)

What was measured:
MV4-11 cells = test: MV4-11 cellular proliferative assay, Assay Format A (CellTiter-Glo, 120 h); assay type: cell-based; details: Homo sapiens, Assay format A, 120 h, read-out: IC50 (MV4-11 cellular proliferative assay)
Experimental: An MV4-11 proliferation assay was used to test the ability of compounds to reduce cell viability. MV4-11 cells (ATCC #CRL9591) were grown in IMDM medium (11510596, Gibco) supplemented with 10% fetal bovine serum (F7524, Gibco) and 1% Penicillin/Streptomycin (15140-122, Gibco) at 37° C. with 5% CO2. Cells were seeded in 384-well Elplasia plates (4447, Corning) at a density of 50 cells/well and treated with vehicle (DMSO) or compounds (10 serial semi-log dilutions, 30 μM as top concentration).
After 120 hours of treatment, cells were incubated for 10 min at RT with the CellTiter-Glo (CTG) reagent (G7571, Promega). Measurement of the luminescence signal was performed on a microplate reader (Ensight, PerkinElmer). CTG reagent measures the amount of ATP, which is directly proportional to the number of cells, to determine the number of viable cells in culture.
The data were analysed as follows:
[formula] • where x is the measured raw signal value of a well, (cr) is the median of the measured signal values for the Central Reference (DMSO) wells on a plate, (sr) is the median of the measured signal values for the Scale Reference (reference compound) wells on a plate.
[formula] • where the experimental set-up assumes the Hill parameters in certain ranges: S0~Central Reference (CR) from normalization (=Bottom), Sinf~Scale Reference (SR) from normalization (=Top), nHill ~1, AC50~within the measured concentration range.

MLLT1 = target: T1, MLLT1 (Homo sapiens, UniProt Q03111); test: MLLT1 degradation assay in MV4-11 cells (JESS, 24 h); assay type: cell-based; parameters: endogenous in cells; host or cells: MV4-11 (ATCC CRL-9591); details: vs DMSO control
T1 sequence (Q03111 1-559): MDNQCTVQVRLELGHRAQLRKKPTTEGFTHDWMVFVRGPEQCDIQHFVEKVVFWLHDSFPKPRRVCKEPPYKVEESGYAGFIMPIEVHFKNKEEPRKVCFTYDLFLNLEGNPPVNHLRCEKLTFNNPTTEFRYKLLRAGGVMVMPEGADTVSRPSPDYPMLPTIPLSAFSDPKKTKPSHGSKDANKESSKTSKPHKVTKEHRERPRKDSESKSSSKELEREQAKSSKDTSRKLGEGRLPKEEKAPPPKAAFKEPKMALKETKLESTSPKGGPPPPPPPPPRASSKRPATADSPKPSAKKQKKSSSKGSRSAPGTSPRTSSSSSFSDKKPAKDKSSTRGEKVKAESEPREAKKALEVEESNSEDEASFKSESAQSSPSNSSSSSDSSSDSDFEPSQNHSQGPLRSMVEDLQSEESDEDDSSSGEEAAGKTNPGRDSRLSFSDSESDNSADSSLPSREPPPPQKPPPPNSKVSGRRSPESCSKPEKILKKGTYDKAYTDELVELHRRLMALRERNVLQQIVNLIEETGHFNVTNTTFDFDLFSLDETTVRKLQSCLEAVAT
Outline: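 MV4-11 cells treated at 1000, 100 and 10 nM (0.1% DMSO) for 24 h at 37° C; lysates (4 ug protein) run on JESS capillary immunoassay with MLLT1 and GAPDH antibodies. Peak areas give % degradation versus DMSO, binned A (≥75%) to D (<25%).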

SMILES | IC50 (MV4-11 cells) [nM] | MLLT1% Degradation @ 0.01 μM (MLLT1) | MLLT1% Degradation @ 0.1 μM (MLLT1) | MLLT1% Degradation @ 1 μM (MLLT1)
Cc1nn(CCCCCN2CCN(c3cc4c(cc3F)C(=O)N(C3CCC(=O)NC3=O)C4=O)CC2)c2cc(C(=O)Nc3cc4[nH]c([C@H]5CCCN5C)cc4cn3)ccc12 (stereo partly drawn) [Example 23, 1-(5-(4-(2-(2,6-dioxopiperidin-3-yl)-6-fluoro-1,3-dioxoisoindolin-5-yl)piperazin-1-yl)pentyl)-3-methyl-N-(2-((R)-1-methylpyrrolidin-2-yl)-1H-pyrrolo[3,2-c]pyridin-6-yl)-1H-indazole-6-carboxamide] | < 100 | A (Category A: A≥75% degradation) | A (Category A: A≥75% degradation) | A (Category A: A≥75% degradation)
CN1CCC[C@@H]1c1cc2cnc(NC(=O)c3ccc4c(cnn4CCCCCCCC#Cc4cccc5c4CN(C4CCC(=O)NC4=O)C5=O)c3)cc2[nH]1 (stereo partly drawn) [Example 38, 1-(9-(2-(2,6-dioxopiperidin-3-yl)-1-oxoisoindolin-4-yl)non-8-yn-1-yl)-N-(2-((R)-1-methylpyrrolidin-2-yl)-1H-pyrrolo[3,2-c]pyridin-6-yl)-1H-indazole-5-carboxamide] | < 100 | B (Category B: 50%≤B<75% degradation) | A (Category A: A≥75% degradation) | B (Category B: 50%≤B<75% degradation)
CCN1CCC[C@@H]1c1cc2cnc(NC(=O)c3ccc4c(C)nn(CCCCCCCC#Cc5cccc6c5CN(C5CCC(=O)NC5=O)C6=O)c4c3)cc2[nH]1 (stereo partly drawn) [Example 48, 1-(9-(2-(2,6-dioxopiperidin-3-yl)-1-oxoisoindolin-4-yl)non-8-yn-1-yl)-N-(2-((R)-1-ethylpyrrolidin-2-yl)-1H-pyrrolo[3,2-c]pyridin-6-yl)-3-methyl-1H-indazole-6-carboxamide] | < 100 | C (Category C: 25%≤C<50% degradation) | B (Category B: 50%≤B<75% degradation) | A (Category A: A≥75% degradation)
CN1CCC[C@@H]1c1cc2cnc(NC(=O)c3ccc4c(cnn4CCCCCCCCNc4cccc5c4C(=O)N(C4CCC(=O)NC4=O)C5=O)c3)cc2[nH]1 (stereo partly drawn) [Example 36, 1-(8-((2-(2,6-dioxopiperidin-3-yl)-1,3-dioxoisoindolin-4-yl)amino)octyl)-N-(2-((R)-1-methylpyrrolidin-2-yl)-1H-pyrrolo[3,2-c]pyridin-6-yl)-1H-indazole-5-carboxamide] | < 100 | A (Category A: A≥75% degradation) | A (Category A: A≥75% degradation) | A (Category A: A≥75% degradation)
Cc1nn(CCCOCC#Cc2cccc3c2CN(C2CCC(=O)NC2=O)C3=O)c2cc(C(=O)Nc3cc4[nH]c([C@H]5CCCN5C)cc4cn3)ccc12 (stereo partly drawn) [Example 31, 1-(3-((3-(2-(2,6-dioxopiperidin-3-yl)-1-oxoisoindolin-4-yl)prop-2-yn-1-yl)oxy)propyl)-3-methyl-N-(2-((R)-1-methylpyrrolidin-2-yl)-1H-pyrrolo[3,2-c]pyridin-6-yl)-1H-indazole-6-carboxamide] | < 100 | C (Category C: 25%≤C<50% degradation) | B (Category B: 50%≤B<75% degradation) | A (Category A: A≥75% degradation)
Cc1nn(CCOCCNc2cccc3c2C(=O)N(C2CCC(=O)NC2=O)C3=O)c2cc(C(=O)Nc3cc4[nH]c([C@H]5CCCN5C)cc4cn3)ccc12 (stereo partly drawn) [Example 26, 1-(2-(2-((2-(2,6-dioxopiperidin-3-yl)-1,3-dioxoisoindolin-4-yl)amino)ethoxy)ethyl)-3-methyl-N-(2-((R)-1-methylpyrrolidin-2-yl)-1H-pyrrolo[3,2-c]pyridin-6-yl)-1H-indazole-6-carboxamide] | < 100 | – | A (Category A: A≥75% degradation) | A (Category A: A≥75% degradation)
Cc1nn(CCCCCCCC#Cc2cccc(C(=O)N[C@H]3CCC(=O)NC3=O)n2)c2cc(C(=O)Nc3cc4[nH]c([C@H]5CCCN5C)cc4cn3)ccc12 [Example 42, 1-(9-(6-(((S)-2,6-dioxopiperidin-3-yl)carbamoyl)pyridin-2-yl)non-8-yn-1-yl)-3-methyl-N-(2-((R)-1-methylpyrrolidin-2-yl)-1H-pyrrolo[3,2-c]pyridin-6-yl)-1H-indazole-6-carboxamide] | < 100 | B (Category B: 50%≤B<75% degradation) | A (Category A: A≥75% degradation) | A (Category A: A≥75% degradation)
Cc1nn(CCCCNc2cccc3c2C(=O)N(C2CCC(=O)NC2=O)C3=O)c2cc(C(=O)Nc3cc4[nH]c([C@H]5CCCN5C)cc4cn3)ccc12 (stereo partly drawn) [Example 21, 1-(4-((2-(2,6-dioxopiperidin-3-yl)-1,3-dioxoisoindolin-4-yl)amino)butyl)-3-methyl-N-(2-((R)-1-methylpyrrolidin-2-yl)-1H-pyrrolo[3,2-c]pyridin-6-yl)-1H-indazole-6-carboxamide] | < 100 | A (Category A: A≥75% degradation) | A (Category A: A≥75% degradation) | A (Category A: A≥75% degradation)
Cc1nn(CCCCCC#Cc2cccc3c2n(C)c(=O)n3C2CCC(=O)NC2=O)c2cc(C(=O)Nc3cc4[nH]c([C@H]5CCCN5C)cc4cn3)ccc12 (stereo partly drawn) [Example 11, 1-{7-[1-(2,6-dioxopiperidin-3-yl)-3-methyl-2-oxo-1,3-benzodiazol-4-yl]hept-6-yn-1-yl}-3-methyl-N-{2-[(2R)-1-methylpyrrolidin-2-yl]-1H-pyrrolo[3,2-c]pyridin-6-yl}indazole-6-carboxamide] | < 100 | B (Category B: 50%≤B<75% degradation) | B (Category B: 50%≤B<75% degradation) | B (Category B: 50%≤B<75% degradation)
Cc1nn(CCCCCCCCNc2cccc3c2C(=O)N(C2CCC(=O)NC2=O)C3=O)c2cc(C(=O)Nc3cc4[nH]c(C5CCCN5C)cc4cn3)ccc12 (racemic) [Example 2, rac-1-(8-{[2-(2,6-dioxopiperidin-3-yl)-1,3-dioxoisoindol-4-yl]amino}octyl)-3-methyl-N-[2-(1-methylpyrrolidin-2-yl)-1H-pyrrolo[3,2-c]pyridin-6-yl]indazole-6-carboxamide] | < 100 | B (Category B: 50%≤B<75% degradation) | A (Category A: A≥75% degradation) | A (Category A: A≥75% degradation)
Cc1nn(CCCCCCCCNc2cccc3c2C(=O)N(C2CCC(=O)NC2=O)C3=O)c2cc(C(=O)Nc3cc4[nH]c([C@H]5CCCN5C)cc4cn3)ccc12 (stereo partly drawn) [Example 3, 1-(8-{[2-(2,6-dioxopiperidin-3-yl)-1,3-dioxoisoindol-4-yl]amino}octyl)-3-methyl-N-{2-[(2R)-1-methylpyrrolidin-2-yl]-1H-pyrrolo[3,2-c]pyridin-6-yl}indazole-6-carboxamide] | < 100 | B (Category B: 50%≤B<75% degradation) | A (Category A: A≥75% degradation) | A (Category A: A≥75% degradation)
Cc1nn(CCCCC#Cc2cccc3c2CN(C2CCC(=O)NC2=O)C3=O)c2cc(C(=O)Nc3cc4[nH]c([C@H]5CCCN5C)cc4cn3)ccc12 (stereo partly drawn) [Example 46, 1-(6-(2-(2,6-dioxopiperidin-3-yl)-1-oxoisoindolin-4-yl)hex-5-yn-1-yl)-3-methyl-N-(2-((R)-1-methylpyrrolidin-2-yl)-1H-pyrrolo[3,2-c]pyridin-6-yl)-1H-indazole-6-carboxamide] | < 100 | A (Category A: A≥75% degradation) | A (Category A: A≥75% degradation) | B (Category B: 50%≤B<75% degradation)
